The test system of series [1] is Canidae. Particulars: oral, Dog Other.
The test system of the next series is Neovison sp. Particulars: repeat dose other; oral; Mink.
The test system of the next series is Coturnix japonica. To be noted: repeat dose other; oral.
Series [2] concerns Rattus norvegicus. To be noted: for NOEL: Hershberger, duration: 10 days, oral, gavage, Sprague-Dawley.
A further series has as its system Cavia porcellus. Particulars: acute, duration: 1 days, oral, gavage, M, Guinea Pig.
Series [3] has as its system Rattus norvegicus. Particulars: short-term; duration: 3 days; injection; subcutaneous; F; Crj:CD; uterus: uterine dry weight (absolute).
The subject of series [4] is Canidae. Particulars: oral, M/F, Dog Other.
In series [5] the test system is Rattus norvegicus. Particulars: subchronic; duration: 90 days; oral; gavage; Kidney: Increased weight + Kidney: Nephrotoxicity + Liver: Increased weight.
Series [6] has as its system Homo sapiens. Particulars: clinical; duration: 4 hours; inhalation; M/F; neurological.
For series [7], the system named is Rattus norvegicus. Particulars: subchronic; oral; drinking water; M/F; nephropathy.
Series [8] deals with Rattus norvegicus. Particulars: repeat dose other; oral.
The test system of series [9] is Rattus norvegicus. Particulars: oral.
In the next series the test system is Macaca mulatta. To be noted: repeat dose other; oral.
The subject of series [10] is Mus musculus. Particulars: oral, drinking water.
Series [11] deals with Mus musculus. To be noted: chronic; oral; M/F; Brain cell vacuolization + liver cell alterations in females.
In series [12] the test system is Homo sapiens. To be noted: clinical; oral; M/F; Decreased respiratory function.
Series [13] relates to Oryctolagus sp.
In series [14] the test system is Mus musculus. To be noted: acute; duration: 1 days; oral; M; DD; hepatic.
The subject of series [15] is Oryctolagus sp. To be noted: developmental, oral.
The subject of another series is Cricetulus sp. To be noted: acute; inhalation; Golden Syrian.
The test system of series [16] is Rattus norvegicus.
[17] abbreviates: subchronic, internal hemorrhage, mortality.
The mark [18] stands for this setting: F, reduced stool quantity, food consumption and body weight gain hyperirritability (maternal effects).
Setting [19] is: chronic, duration: 2 years, diet, renal tubular epithelial vacuolation.
Where [20] appears, read: short-term, duration: 28 days, gavage, M, Sprague-Dawley, Clinical Observation: Salivationlocomotor activity decrease, Soft stool/diarrhea + Urinalysis: Brownish urine Occult blood + Hematology: PT ….

Structures are written as SMILES.

As usually defined, the NOAEL is the highest dose or exposure tested at which no adverse effect was seen. The molecule `CNC(=O)ON=C(CSC)C(C)(C)C` had an NOAEL in the series on Canidae [1] (short-term, duration: 8 days, Cholinesterase: Decreased cholinesterase activity) of 0.025 mg/kg-day.

The LOAEL is the lowest dose or exposure tested at which an adverse effect was seen. Regarding `ClC1C(Cl)C(Cl)C(Cl)C(Cl)C1Cl` (stereo not given) [1,2,3,4,5,6-Hexachlorocyclohexane], in the series with Neovison sp., the lowest-observed-adverse-effect level (LOAEL) amounted to 0.14 mg/kg-day and the NOAEL was determined as 0.014 mg/kg-day. Moreover, in the series with Coturnix japonica, the lowest observed adverse effect level (LOAEL) worked out at 2.25 mg/kg-day and the NOAEL is 0.56 mg/kg-day.

In turn, `Oc1ccccc1Cc1ccccc1O` [2,2'-Bisphenol F] yielded an LEL in the series on Rattus norvegicus [2] (uterotrophic, duration: 3 days, injection, subcutaneous, Active) of 46.5 mg/kg-day. The LOEL in the series on Cavia porcellus (BALF eosinophil peroxidase activity + BALF histamine activity + BALF total leukocytes + specific airway resistance (sRaw) - immediate …) amounted to 12.5 mg/kg-day; with Cavia porcellus (BALF phospholipase A2 activity), 50 mg/kg-day; with Rattus norvegicus [3] it was 200 mg/kg-day. The NOEL in the series on Cavia porcellus (BALF phospholipase A2 activity) turned out to be 25 mg/kg-day; in the series with Rattus norvegicus [3], 20 mg/kg-day.

Take `O=C(O)CCCOc1ccc(Cl)cc1Cl` [2,4-Dichlorophenoxybutyric acid]: the no-observed-adverse-effect level (NOAEL) with Canidae [1] (subchronic, duration: 90 days, diet, Cardiovascular system: Hemorrhage + Whole body: Increased mortality) was 8 mg/kg-day. In the series on Canidae [4] (setting [17]), this molecule registered an LOAEL of 25 mg/kg-day and a no observed adverse effect level (NOAEL) of 8 mg/kg-day.

On to `CC(C)=O` [Acetone], for which the NOEL with Rattus norvegicus [2] (inactive + Negative + Negative + neither + see comment) worked out at 1000 mg/kg-day; with Rattus norvegicus [5], 100 mg/kg-day; in the series with Rattus norvegicus [9] (subchronic, drinking water, M/F, Fischer 344, Body Weight Changes: decrease + Water Consumption: decrease + Hematology: WBC increase, Lymph increase, Hgb decrease, RBC decrease, MCH …), 380 mg/kg-day. For the same molecule, the LOAEL turned out to be 563 mg/m3 in the series on Homo sapiens [6], 1700 mg/kg-day in the series with Rattus norvegicus [7] and 50 mg/kg-day in the series on Rattus norvegicus [8]. The results for the NOAEL in the series with Rattus norvegicus [7] and with Rattus norvegicus [8] were 900 mg/kg-day and 10 mg/kg-day, respectively.

In the series with Macaca mulatta, `Clc1cc(Cl)cc(-c2cc(Cl)cc(Cl)c2)c1` [Aroclor 1248] came in with an LOAEL of 0.1 mg/kg-day and a no-observed-adverse-effect level (NOAEL) of 0.01 mg/kg-day.

As for `Nc1ccc(-c2ccc(N)cc2)cc1` [C.I. Azoic Diazo Component 112], the LOAEL came to 2.7 mg/kg-day in the series with Mus musculus [10] (chronic, duration: 33 months, Brain: Cellular changes + Liver: Cellular changes) and 2.7 mg/kg-day in the series on Mus musculus [11].

As to `CC(C)NCC(O)COc1cccc2[nH]c3ccccc3c12` (stereo not given) [Carazolol], in the series with Homo sapiens [12], the NOEL was 0.0005 mg/kg-day.

On to `S=C=S` [Carbon disulfide], for which the NOEL came out at 11 mg/kg-day in the series on Oryctolagus sp. [13] (developmental, inhalation, intermittent, Fetus: Toxicity) and 11 mg/kg-day in the series on Oryctolagus sp. [15] (M/F, fetal toxicity/ malformations). The molecule also yielded an LOAEL with Mus musculus [14] of 3 mg/kg-day.

`O=CC(Cl)(Cl)Cl` [Chloral] displayed an LOAEL in the series on Mus musculus [10] (subchronic, duration: 90 days, Liver: Effects) of 15.7 mg/kg-day.

Regarding `CCOC(=O)C(O)(c1ccc(Cl)cc1)c1ccc(Cl)cc1` [Chlorobenzilate], the NOEL was 5 mg/kg-day with Oryctolagus sp. [13] (short-term, duration: 13 days, oral, gavage, Gastrointestinal system: Decreased stool quantity + Nervous system: Hyperirritability + Whole body: Decreased food consumption + Whole body…) and 5 mg/kg-day in the series with Oryctolagus sp. [15] (setting [18]). The LEL in the series on Oryctolagus sp. [15] (setting [18]) turned out to be 20 mg/kg-day.

What is called LD50 is the dose expected to kill half of the subjects tested. A high value points to a less toxic substance. As to `COCCl` [Chloromethyl methyl ether], in the series with Rattus norvegicus [9] (subchronic, duration: 42 days, gavage, M, CD(SD), Body Weight Changes: decrease + Food Consumption: decrease + Urinalysis: Osm decrease + Hematology: RET increase, WBC increase, LYMPH …), the NOEL is below 15 mg/kg-day. The LC50 with Cricetulus sp. was 214 mg/m3; in the series with Rattus norvegicus [16] (acute, inhalation, Sprague-Dawley) it was 181 mg/m3. This molecule also gave an LD50 in the series with Rattus norvegicus [16] (acute, oral) of 817 mg/kg. Further, the NOAEL worked out at 132 mg/m3 with Rattus norvegicus [16] (developmental, duration: 15 days, inhalation, Sprague-Dawley) and 0.006 mg/L with Rattus norvegicus [16] (reproduction developmental, duration: 10 days, inhalation, F, Sprague-Dawley).

As to `N#Cc1c(Cl)c(Cl)c(Cl)c(C#N)c1Cl` [Chlorothalonil], the NOEL is 175 mg/kg-day in the series on Rattus norvegicus [2] (inactive + Negative + Negative + neither + see note); 1.5 mg/kg-day in the series on Canidae [1] (chronic, duration: 2 years, diet, Kidney: Effects); 1.5 mg/kg-day in the series on Canidae [4] (setting [19]); below 100 mg/kg-day with Rattus norvegicus [9] (setting [20]). In the series with Canidae [4] (setting [19]), this molecule displayed an LEL of 3 mg/kg-day. Also, the NOAEL in the series with Rattus norvegicus [9] (setting [20]) was below 100 mg/kg-day.

As to `ClC1=C(Cl)[C@]2(Cl)[C@@H]3[C@@H](Cl)[C@H]4O[C@H]4[C@@H]3C1(Cl)C2(Cl)Cl` [Heptachlor epoxide B], the lowest observed adverse effect level (LOAEL) in the series with Canidae [1] (chronic, duration: 60 weeks, diet, Liver: Increased relative weight) was found to be 0.0125 mg/kg-day. Besides, the LEL in the series with Canidae [4] (chronic, duration: 60 weeks, diet, increased liver-to-body weight ratio in both males and females) is 0.0125 mg/kg-day.

`Oc1c(Cl)cc(Cl)c(Cl)c1Cc1c(O)c(Cl)cc(Cl)c1Cl` [Hexachlorophene] had an LOAEL in the series on Canidae [1] (subchronic, duration: 13 weeks, diet, Nervous system: Effects) of 0.75 mg/kg-day. The LEL in the series on Canidae [4] (subchronic, duration: 13 weeks, diet, swollen salivary gland, status spongiosis in brain and optic nerve) was found to be 0.75 mg/kg-day.

Values taken from EPA's ToxValDB 9.5.
